What is called melting point is the temperature, or range, at which the solid turns liquid.

Where only a bound is given, the exact number is not on record here.

The compound `CC(C)(C)OC(=O)N1CCC[C@H](O)[C@@H]1c1ccccc1` yielded a melting point of 66 to 67 °C. The compound `CSc1ccc(C(=O)Nc2ccccc2)cc1[N+](=O)[O-]` showed a melting point of 219 to 222 °C. To `O=C(O)CCC(=O)c1ccc(NC(=O)CCN2CCC(c3ccccc3)CC2)cc1` belongs 237 to 238 °C; to `Cn1ccnc1Sc1ccc(Nc2c(C#N)cnc3cc(-c4ccc(C(=O)N5CCOCC5)cc4)ccc23)cc1Cl`, 98 to 101 °C; to `CC(Oc1ccc(Br)cc1)c1ccnc2ncnn12` (stereo not given), 121 to 124 °C.

In turn, `CCOC(=O)CN1CC(=O)N(C)c2ccc(N)cc2C1=O` yielded a melting point of 118 to 119 °C. To `CN(CC(O)c1ccc(Cl)c(Cl)c1)C(=O)OC(C)(C)C` (stereo not given) belongs 88 °C; to `O=C(C#Cc1ccc(Br)cc1)Nc1ccccc1`, 159 to 160 °C; to `O=c1[nH]c2cc(Cl)ccc2n1C1CCN(C[C@H]2CO[C@@H](c3ccc(F)cc3)C2)CC1` (relative stereo), 208 °C.

`CC(C)(C)Nc1cc(NC(C)(C)C)nc(N2CCNCC2)n1` yielded a melting point of 135 to 138 °C. In the case of `CN(CCC#N)CCc1coc(-c2cc(C(C)(C)C)c(O)c(C(C)(C)C)c2)n1`, the melting point was 104 to 105 °C. As for `Cc1nn(C)c2ccc(C(=O)O)c(C(=O)O)c12`, the figure is 228 to 232 °C; as for `CC(C)C1N(CC(N)=O)C(=O)CN1C(=O)CCl` (stereo not given), 163 °C; as for `COc1ccc(C2=C(c3ccccc3)CCCc3cc(OC4CCCCO4)ccc32)cc1` (stereo not given), 131 to 133 °C. As for `O=C(N[C@H](CC1CCCCC1)CN1CCN(c2ncccn2)CC1)C1CCCCC1`, the figure is 121 to 123 °C; as for `CC(C)(C)C(NC(=O)c1ccc(Cl)cc1)NC(Nc1cccnc1)=C(C#N)C#N` (stereo not given), 213 to 214 °C. To `COc1cccc(CC(=O)O)c1OCCCc1cn(-c2ncc(Cl)cc2Cl)nc1C(C)C` belongs 105 to 106 °C; to `O=C(Nc1ccc(Cl)c(C(F)(F)F)c1)c1ccccc1[N+](=O)[O-]`, 165 to 169 °C. `Cc1ccc2c3c(ccc2n1)OC[C@H](CN1CCCN(c2ccc4cc(C#N)ccc4n2)CC1)O3` displayed a melting point of 80 to 85 °C.

Compound `Nc1nc(=O)n(C2OC(CO)C(O)C2F)cc1Br` (stereo not given) yielded a melting point of 201 to 202 °C.

Take `COc1cc(C(=O)c2ncc3c(C(=O)N(C)C)cccn23)ccc1[N+](=O)[O-]`: the melting point came out at 176 °C. To `Nc1cccc(OCCN2CCc3ccccc3C2)c1N` belongs 76 to 77 °C; to `CNc1ccc(N)cc1C(=O)n1nc(O)c2ccccc21`, 184 to 186 °C. As for `CCOC(=O)c1cc(=O)c2c(OCC(O)COc3ccc(OC)cc3)cccc2o1` (stereo not given), the figure is 135 to 136 °C; as for `COC(=O)CC(C#N)Cc1ccc(Cl)cc1Cl` (stereo not given), 86 to 88 °C; as for `O=c1c2cc([N+](=O)[O-])ccc2nc2n1CS(=O)(=O)N2`, above 300 °C. To `COc1cc(OC)nc(C2(C#N)OC(=O)c3c(Cl)cccc32)n1` (stereo not given) belongs 159 to 161 °C; to `C#CCn1nnc(SC(c2ccccc2)c2ccccc2)n1`, 85 to 86 °C. `CCOC(=O)CC(c1ccccc1)c1ccc(N2CCN(CCC3CCN(C(=O)OC(C)(C)C)CC3)C2=O)cc1` (stereo not given) registered a melting point of 100 to 102 °C. As for `CS(=O)(=O)NCCn1c(CO)nc2c(N)nc3cccnc3c21`, the figure is 239 to 242 °C. As for `CC1(NC2=NS(=O)(=O)c3sc(Cl)cc3N2)CCCCC1`, the figure is 218 to 219 °C; as for `O=C1N(Cc2ccccc2)C2CSC(O)C2N1Cc1ccccc1` (stereo not given), 163 to 164 °C; as for `Cc1noc(C)c1S(=O)(=O)n1c(CCCC(=O)O)cc2cc(Cl)ccc21`, 150 to 154 °C. To `O=C(CN1C(=O)c2ccccc2C1=O)c1ccc(F)cc1` belongs 140 to 144 °C; to `O=C(Nc1ccc(F)c(C(F)(F)F)c1)N1COc2cc(O)ccc21`, 171 to 172 °C. For `Cc1cc2c(cc1N1CCCCC1)OC(=O)C2C` (stereo not given), the melting point fell in the range of 61 to 63 °C. As for `Clc1cnn2c(-c3cccnc3)ccnc12`, the figure is 225 to 226 °C. To `COc1cc2c(cc1OCc1ccccc1)CCN(C(=O)c1cc(OC)c(OC)c(OC)c1)C2=O` belongs 195 to 196 °C; to `CN1C(=O)C(c2cccc(-c3cncnc3)c2)(c2cc(C#N)n(C)c2)N=C1N` (stereo not given), 214 to 225 °C. For `O=C(NCc1ccccn1)Nc1cc(N2CC(c3cccs3)OC2=O)ccn1` (stereo not given), the melting point was in the range of 187 to 188 °C.

For `CC(=O)SC[C@H](NC(=O)C(C)C)C(=O)NCCSC(=O)c1ccccc1`, the melting point lay within 174 to 176 °C. On to `COC(=O)c1ccccc1CS(=O)(=O)N=c1nc2nc(OC)cc(OC)n2s1`, for which the melting point is 153 to 154 °C. To `Cn1cnnc1COc1nn2c(-c3ccccc3F)nnc2cc1C1CCC1` belongs 228 °C; to `CSCCCCC(c1cc(F)ccc1F)S(=O)(=O)c1ccc(Cl)cc1` (stereo not given), 103 to 106 °C; to `CCOC(=O)COc1ccc2c(c1)CC(CNC(=O)OC(C)(C)C)C2` (stereo not given), 56 to 63 °C. To `CC(=O)SCC(Cc1ccccc1)C(=O)NC1(C(=O)O)CC1` (stereo not given) belongs 169 to 171 °C. To `CCCCc1nn(-c2ccc([N+](=O)[O-])cc2C(F)(F)F)c(=O)[nH]1` belongs 126 to 128 °C. For the compound `CC(C)(C)N(NC(=S)c1ccc(Cl)cc1)C(=O)c1ccccc1`, the melting point is 160 to 162 °C. As for `COc1ccc2c(c1)[C@](C)(NC(=O)c1cc3cccc4c3n1CC4)C(=O)N2c1ccc(F)cc1`, the figure is 277 to 278 °C; as for `OCc1nn(-c2cccc(C(F)(F)F)c2)c2c1CCCC2`, 93 to 94 °C.

With `Clc1ccc(-c2cn3cccc4c3c2CCC4)cc1`, the melting point is 131 °C. As for `CCCN(C(=S)NC(=O)c1ccccc1)C(CO)c1ccccc1` (stereo not given), the figure is 82 °C; as for `O=C1OC(CNC(=S)C(F)F)CN1c1ccc(N2CCOCC2)c(F)c1` (stereo not given), 125 to 127 °C; as for `CN1CCC(=C(c2ccc(F)cc2)c2cccnc2)CC1`, 93.1 °C. For `Cc1ccc2[nH]c3c(c2c1)CC(C)n1c-3nc2c(c1=O)CCCC2` (stereo not given), the melting point came to 220 °C.

Compound `O=c1c(-c2cccc(C(F)(F)F)c2)c[nH]n1-c1cccc(C(F)(F)F)c1` had a melting point of 207 to 208 °C. The compound `COc1ccc(S(=O)(=O)N2c3ccc(Br)cc3-c3ccccc3C2c2ccccc2)cc1` (stereo not given) came in with a melting point of 209 to 211 °C. `O=C(NCCO)c1ccc(-c2cccc3cc(Cc4cccc(C(F)(F)F)c4)sc23)nc1`: the melting point was in the range of 160 to 161 °C.

The compound `CC(C)CC1(C(CCN2C(=O)c3cccc([N+](=O)[O-])c3C2=O)C(=O)NO)CCN(CCc2ccccc2)C1=O` (stereo not given) displayed a melting point of 136 to 138 °C. To `CCOC(=O)Cn1c2cccccc-2c(C#N)c1=O` belongs 149 to 151 °C. With `CC(Cl)c1nc2c(C(F)(F)F)cccc2c(=O)o1` (stereo not given), the melting point was determined as 112 °C. As for `Cc1cccc(NC(=O)NCCC(=O)O)c1`, the figure is 166 °C; as for `CCOC(=O)C1CSC(COc2ccccc2OC)N1` (stereo not given), 50 °C; as for `CCOc1cc(O)c2cc(C(C)=O)ccc2n1`, 210 to 219 °C. To `Cc1nc(-c2ccc(C(F)(F)F)cc2)sc1COc1ccc(CC(=O)O)cc1` belongs 149 to 150 °C.

For `COC(=O)c1cc([N+](=O)[O-])ccc1CS(N)(=O)=O`, the melting point lay within 167 to 170 °C. In turn, `CC1=CC(c2ccccc2Cl)C(C(=O)OC(C)C)=C(N)N1` (stereo not given) displayed a melting point of 161 °C. As for `O=C(CCCCCCc1ccccc1)Oc1cc(=O)n(-c2ccccc2)c2ncccc12`, the figure is 139 to 140 °C; as for `COc1ccc2ccc(O)c(Cl)c2c1`, 76 to 78 °C; as for `COC(=O)c1nn(-c2ccc(CBr)cc2)nc1C`, 122 to 125 °C. As for `CN(C)c1ncc(C(=O)N2CCOC(c3cccc(O)c3)C2)c(-c2ccccc2)n1` (stereo not given), the figure is 140 °C; as for `CCCC(=O)c1cnc2c(C)cccc2c1Nc1ccccc1OC`, 135 to 137 °C; as for `N#Cc1ccc(-c2ccc(O)cn2)cc1`, 210 °C. As for `O=C(O)c1cc(NCc2c(F)c(F)c(C(F)(F)F)c(F)c2F)ccc1OC(F)(F)F`, the figure is 38 °C; as for `CC(C)CC1(CC(C)C)CCc2c(OCc3ccc4ccccc4n3)cccc2C1O` (stereo not given), 144 to 146 °C; as for `CC(C)(C)c1cc(N2C=NC(NC(=N)N)S2)cc(C(C)(C)C)c1O` (stereo not given), 276 °C. In the case of `CCN(CC)CCOc1ccc(Nc2ncc3c(n2)N(c2cccc(CCO)c2)C(=O)N(c2ccccc2Br)C3)cc1`, the melting point stood at 98 °C. To `Cc1nc(-c2ccccc2N)[nH]c1-c1cccnc1` belongs 221 to 222 °C; to `CN(C)Cc1c[nH]c2c(F)cccc12`, 133 to 137 °C. To `COc1cc(COc2cc(/C=C/C(=O)O)n(-c3ccccc3)n2)ccc1OCc1nc(-c2ccccc2)oc1C` belongs 194 to 195 °C; to `Cc1oc2cc(N)ccc2c(=O)c1C`, 224 to 226 °C; to `O=C(C=Cc1cccc(-c2ccccc2)c1)Nc1ccc(CP2(=O)OCCCO2)cc1`, 204 to 205 °C.

With `O=C(NN1CCNC1=O)Sc1ccccc1`, the melting point fell in the range of 154 to 159 °C. To `COC(=O)c1scc(-c2ccccc2)c1-c1ccc(SCOC(C)=O)c(F)c1` belongs 103 to 104 °C; to `C#CCC(C)(C(=O)O)C(=O)O`, 135 °C. To `C=Cc1ccc2c3ccc(C=C)cc3n(CC(CC)CCCC)c2c1` (stereo not given) belongs 59 to 60 °C.

For the compound `Cc1cc(C(C)(C)C)c(O)c(C)c1CC(=O)N1CCN(C(=O)Cc2c(C)cc(C(C)(C)C)c(O)c2C)CC1`, the melting point is 305 to 310 °C. As for `OCC1Cc2c([nH]c3ccccc23)CN1C(=S)SCc1ccc(Cl)cc1` (stereo not given), the figure is 175 to 176 °C; as for `O=C(c1ccc(O)cc1)c1oc2ccccc2c1-c1ccc(Cl)cc1`, 220 to 221 °C; as for `O=C1Nc2ccccc2C1CCCCN1CCN(c2cccc(Cl)c2)CC1` (stereo not given), 112 to 114 °C.

Values taken from a melting point compilation (Tetko et al.; mined from patent text by program, amines drawn as free bases though some values may be those of a salt).
